The source of these data is patent US8759535B2, “Substituted fused imidazole derivatives, pharmaceutical compositions, and methods of use thereof” (High Point Pharmaceuticals, LLC, priority 2010, dated 2014).

Molecules are shown by their SMILES. Counter-ions that a name gives are not always drawn.

The test system of the first assay is HMOX1. In words: HMOX1 Protein Assay (immunostaining of HO-1 in NHLF cells, GE InCell 1000). Type of assay: cell-based. The conditions noted are these: Homo sapiens, fold change above DMSO treated cells, 3 μM compound (asterisk), 16 h. The gist of the method: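 Fold induction of HO-1 over vehicle, normally at 5 μM compound (asterisk marks 3 μM), in 0.8% DMSO medium. Normal human lung fibroblasts were treated 16 h, then paraformaldehyde-fixed, anti-HO-1/Alexa 488 stained with Hoechst, and read by high-content imaging.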
As to `C[C@@H](NC(=O)c1ccc2c(c1)nc(Nc1nc3ccc(Cl)cc3s1)n2C)C(=O)N1CCOCC1` [Example 471, 2-(6-Chloro-benzothiazol-2-ylamino)-1-methyl-1H-benzoimidazole-5-carboxylic acid ((R)-1-methyl-2-morpholin-4-yl-2-oxo-ethyl)-amide], the fold induction at 3 µM is 17.4.
In turn, `CO[C@@H]1CCN(C(=O)CNC(=O)c2ccc3c(c2)nc(Nc2nc4ccc(Cl)cc4s2)n3C)C1` [Example 408, 2-(6-Chloro-benzothiazol-2-ylamino)-1-methyl-1H-benzoimidazole-5-carboxylic acid [2-((R)-3-methoxy-pyrrolidin-1-yl)-2-oxo-ethyl]-amide] showed a fold induction at 3 µM of 25.
Same read-out and setting: under `CN(C)CCCNC(=O)c1ccc2c(c1)nc(Nc1nc3ccc(C(F)(F)F)cc3s1)n2C` [Example 350, 1-Methyl-2-(6-trifluoromethyl-benzothiazol-2-ylamino)-1H-benzoimidazole-5-carboxylic acid (3-dimethylamino-propyl)-amide] stands 24; under `Cn1c(Nc2nc3ccc(Cl)cc3s2)nc2cc(C(=O)NCCS(=O)(=O)CCO)ccc21` [Example 278, 2-(6-Chloro-benzothiazol-2-ylamino)-1-methyl-1H-benzoimidazole-5-carboxylic acid [2-(2-hydroxy-ethanesulfonyl)-ethyl]-amide], 36.5.
Same read-out and setting: under `C[C@@H](NC(=O)c1ccc2c(c1)nc(Nc1nc3ccc(C(F)(F)F)cc3s1)n2C)C(=O)N1CCOCC1` [Example 472, 1-Methyl-2-(6-trifluoromethyl-benzothiazol-2-ylamino)-1H-benzoimidazole-5-carboxylic acid ((R)-1-methyl-2-morpholin-4-yl-2-oxo-ethyl)-amide] stands 23; under `Cn1c(Nc2nc3ccc(Cl)cc3s2)nc2cc(C(=O)NCC(=O)N3CCCC3)ccc21` [Example 397, 2-(6-Chloro-benzothiazol-2-ylamino)-1-methyl-1H-benzoimidazole-5-carboxylic acid (2-oxo-2-pyrrolidin-1-yl-ethyl)-amide], 25.

The same assay, now with this note: Homo sapiens, fold change above DMSO treated cells, 5 μM compound, 16 h.
Take `CN(C)CC(=O)N1CCC(NC(=O)c2ccc3c(c2)nc(Nc2nc4ccc(Cl)cc4s2)n3C)CC1` [Example 313, 2-(6-Chloro-benzothiazol-2-ylamino)-1-methyl-1H-benzoimidazole-5-carboxylic acid [1-(2-dimethylamino-acetyl)-piperidin-4-yl]-amide]: the fold induction at 5 µM was determined as 22.9.
On to `CN(C)C(=O)[C@@H]1CCCN1C(=O)CNC(=O)c1ccc2c(c1)nc(Nc1nc3ccc(Cl)cc3s1)n2C` [Example 419, 2-(6-Chloro-benzothiazol-2-ylamino)-1-methyl-1H-benzoimidazole-5-carboxylic acid [2-((S)-2-dimethylcarbamoyl-pyrrolidin-1-yl)-2-oxo-ethyl]-amide], for which the fold induction at 5 µM was 28.
The same measure, in the same setting: the value for `CCN(CC)CCCCNC(=O)c1ccc2c(c1)nc(Nc1nc3ccc(OC(F)(F)F)cc3s1)n2C` [Example 360, 1-Methyl-2-(6-trifluoromethoxy-benzothiazol-2-ylamino)-1H-benzoimidazole-5-carboxylic acid (4-diethylamino-butyl)-amide] was 34.3.
Same read-out and setting: under `Cn1c(Nc2nc3ccc(Cl)cc3s2)nc2cc(C(=O)NCCN3CCCC(F)(F)C3)ccc21` [Example 336, 2-(6-Chloro-benzothiazol-2-ylamino)-1-methyl-1H-benzoimidazole-5-carboxylic acid [2-(3,3-difluoro-piperidin-1-yl)-ethyl]-amide] stands 16.1.
Still for that read-out and setting: the value for `CNC(=O)c1ccc2c(c1)nc(Nc1nc3ccc(OC(F)(F)F)cc3s1)n2CCF` [Example 170, 1-(2-Fluoro-ethyl)-2-(6-trifluoromethoxy-benzothiazol-2-ylamino)-1H-benzoimidazole-5-carboxylic acid methylamide] was 23.
As to `CN(C)CCNC(=O)c1ccc2c(c1)nc(Nc1nc3ccc(OC(F)(F)F)cc3s1)n2C` [Example 82, 1-Methyl-2-(6-trifluoromethoxy-benzothiazol-2-ylamino)-1H-benzoimidazole-5-carboxylic acid (2-dimethylamino-ethyl)-amide], the fold induction at 5 µM turned out to be 17.
`CN(C)C(=O)CNC(=O)c1ccc2c(c1)nc(Nc1nc3ccc(OC(F)(F)F)cc3s1)n2C` [Example 80, 1-Methyl-2-(6-trifluoromethoxy-benzothiazol-2-ylamino)-1H-benzoimidazole-5-carboxylic acid dimethylcarbamoylmethyl-amide] gave a fold induction at 5 µM of 23.2.
Still for that read-out and setting: the value for `Cn1c(Nc2nc3ccc(OC(F)(F)F)cc3s2)nc2cc(C(=O)NCCC3CCC(O)CC3)ccc21` (stereo not shown) [Example 253, 1-Methyl-2-(6-trifluoromethoxy-benzothiazol-2-ylamino)-1H-benzoimidazole-5-carboxylic acid [2-(4-hydroxy-cyclohexyl)-ethyl]-amide] was 26.6; that for `CCn1c(Nc2nc3ccc(OC(F)(F)F)cc3s2)nc2cc(C(=O)NCC(=O)N(C)C)ccc21` [Example 186, 1-Ethyl-2-(6-trifluoromethoxy-benzothiazol-2-ylamino)-1H-benzoimidazole-5-carboxylic acid dimethylcarbamoylmethyl-amide] was 20.2.
On the same count and under the same terms, the value for `Cn1c(Nc2nc3ccc(F)cc3s2)nc2cc(C(=O)O)ccc21` [Example 118, 2-(6-Fluoro-benzothiazol-2-ylamino)-1-methyl-1H-benzimidazole-5-carboxylic acid] was 14.1.
On to `Cn1c(Nc2nc3ccc(OC(F)(F)F)cc3s2)nc2cc(C(=O)NCC(=O)N3CC[C@H](N)C3)ccc21` [Example 412, 1-Methyl-2-(6-trifluoromethoxy-benzothiazol-2-ylamino)-1H-benzoimidazole-5-carboxylic acid [2-((S)-3-amino-pyrrolidin-1-yl)-2-oxo-ethyl]-amide hydrochloride], for which the fold induction at 5 µM amounted to 47.6.
Still for that read-out and setting: the value for `Cn1c(Nc2nc3ccc(OC(F)(F)F)cc3s2)nc2cc(C(=O)NCC(=O)N3CCC(CO)CC3)ccc21` [Example 441, 1-Methyl-2-(6-trifluoromethoxy-benzothiazol-2-ylamino)-1H-benzoimidazole-5-carboxylic acid [2-(4-hydroxymethyl-piperidin-1-yl)-2-oxo-ethyl]-amide] was 73.6; that for `Cn1c(Nc2nc3ccc(OC(F)(F)F)cc3s2)nc2cc(C(=O)NCC(=O)N3CCCC3)ccc21` [Example 141, 1-Methyl-2-(6-trifluoromethoxy-benzothiazol-2-ylamino)-1H-benzimidazole-5-carboxylic acid (2-oxo-2-pyrrolidin-1-yl-ethyl)-amide] was 23.1; that for `CNC(=O)c1ccc2c(c1)nc(Nc1nc3ccc(OC(F)(F)F)cc3s1)n2CC(C)C` [Example 164, 1-Isobutyl-2-(6-trifluoromethoxy-benzothiazol-2-ylamino)-1H-benzoimidazole-5-carboxylic acid methylamide] was 20.5.
In the case of `CNCCOCCNC(=O)c1ccc2c(c1)nc(Nc1nc3ccc(Cl)cc3s1)n2C` [Example 272, 2-(6-Chloro-benzothiazol-2-ylamino)-1-methyl-1H-benzoimidazole-5-carboxylic acid [2-(2-methylamino-ethoxy)-ethyl]-amide hydrochloride], the fold induction at 5 µM turned out to be 86.5.
Still for that read-out and setting: under `Cn1c(Nc2nc3ccc(Cl)cc3s2)nc2cc(C(=O)NCC3CCN(CCO)CC3)ccc21` [Example 303, 2-(6-Chloro-benzothiazol-2-ylamino)-1-methyl-1H-benzoimidazole-5-carboxylic acid [1-(2-hydroxy-ethyl)-piperidin-4-ylmethyl]-amide] stands 25.6; under `CCn1c(Nc2nc3ccc(Oc4cccnc4)cc3s2)nc2cc(C(=O)NCCOC)ccc21` [Example 191, 1-Ethyl-2-[6-(pyridin-3-yloxy)-benzothiazol-2-ylamino]-1H-benzoimidazole-5-carboxylic acid (2-methoxy-ethyl)-amide], 33.8; under `COC(=O)c1ccc2c(c1)nc(Nc1nc3ccc(OC(F)(F)F)cc3s1)n2C` [Example 2, 1-Methyl-2-(6-trifluoromethoxy-benzothiazol-2-ylamino)-1H-benzoimidazole-5-carboxylic acid methyl ester], 6.51.
In the case of `CCOCCNC(=O)c1ccc2c(c1)nc(Nc1nc3ccc(OC(F)(F)F)cc3s1)n2CCF` [Example 172, 1-(2-Fluoro-ethyl)-2-(6-trifluoromethoxy-benzothiazol-2-ylamino)-1H-benzoimidazole-5-carboxylic acid (2-ethoxy-ethyl)-amide], the fold induction at 5 µM is 21.4.
The same measure, in the same setting: the value for `Cn1c(Nc2nc3ccc(OC(F)(F)F)cc3s2)nc2cc(C(=O)NCCOCCF)ccc21` [Example 47, 1-Methyl-2-(6-trifluoromethoxy-benzothiazol-2-ylamino)-1H-benzoimidazole-5-carboxylic acid [2-(2-fluoro-ethoxy)-ethyl]-amide] was 11.3.
In turn, `Cn1c(Nc2nc3ccc(OC(F)(F)F)cc3s2)nc2cc(C(=O)NCc3ccco3)ccc21` [Example 48, 1-Methyl-2-(6-trifluoromethoxy-benzothiazol-2-ylamino)-1H-benzoimidazole-5-carboxylic acid (furan-2-ylmethyl)-amide] gave a fold induction at 5 µM of 15.8.
The same measure, in the same setting: under `CC(=O)NCCNC(=O)c1ccc2c(c1)nc(Nc1nc3ccc(OC(F)(F)F)cc3s1)n2C` [Example 100, 1-Methyl-2-(6-trifluoromethoxy-benzothiazol-2-ylamino)-1H-benzoimidazole-5-carboxylic acid (2-acetylamino-ethyl)-amide] stands 25.9.
